Here are results for one molecule from article PMC10255569, “Discovery of Peptidic Ligands against the SARS-CoV-2 Spike Protein and Their Use in the Development of a Highly Sensitive Personal Use Colorimetric COVID-19 Biosensor” (ACS Sensors, 2023).

This assay addresses Delta-variant SARS-CoV-2 spike protein receptor-binding domain (L452R, T478K) (Severe acute respiratory syndrome coronavirus 2, UniProt P0DTC2, L452R/T478K). Also on record: species or system SARS-CoV-2 Delta variant.

“Also recorded” adds a separate entry of the source. Non-standard residues stand in square brackets, D forms with d. Residues, ends and D or L forms follow the SMILES beside them. *: point of attachment. Biotin = O=C1N[C@H]2[C@H](CS[C@H]2CCCCC(=O)*)N1; Phe(3,5-F2) = N[C@@H](Cc1cc(F)cc(F)c1)C(=O)O; hCit = NC(=O)NCCCC[C@H](N)C(=O)O; Aad = N[C@@H](CCCC(=O)O)C(=O)O; Nva = CCC[C@H](N)C(=O)O; AEEA = NCCOCCOCC(=O)O

Consider `CCC[C@H](NC(=O)[C@H](CCCCNC(N)=O)NC(=O)[C@H](CCCNC(=N)N)NC(=O)[C@H](Cc1ccc(OC)cc1)NC(=O)[C@H](N)Cc1c[nH]cn1)C(=O)N[C@@H](CCCNC(=N)N)C(=O)N[C@@H](Cc1cc(F)cc(F)c1)C(=O)N[C@@H](Cc1ccccc1)C(=O)N[C@@H](CCCC(=O)O)C(=O)NCCOCCOCC(=O)NCCOCCOCC(=O)N[C@@H](CCCCNC(=O)CCCC[C@@H]1SC[C@@H]2NC(=O)N[C@@H]21)C(N)=O` [L10-2] (H-[dH]Y(Me)R[hCit][Nva]R[Phe(3,5-F2)]F[Aad][AEEA][AEEA]K(Biotin)-NH2), for which the RMax was 0.11 ± 0.004 and the “binding to the Delta variant of spike protein RBD (in words)” value is given as “able to bind to the Delta variant of spike protein RBD with similar affinity; also recorded: can bind to S-protein from the SARS-CoV-2 Delta variant”.
